Experimental data taken from US10933063B2 (priority 2017, dated 2021).

biological target: BTK (Homo sapiens (Human), UniProt Q06187); experiment: biochemical
Sequence (Q06187 whole entry, looked up, species assumed): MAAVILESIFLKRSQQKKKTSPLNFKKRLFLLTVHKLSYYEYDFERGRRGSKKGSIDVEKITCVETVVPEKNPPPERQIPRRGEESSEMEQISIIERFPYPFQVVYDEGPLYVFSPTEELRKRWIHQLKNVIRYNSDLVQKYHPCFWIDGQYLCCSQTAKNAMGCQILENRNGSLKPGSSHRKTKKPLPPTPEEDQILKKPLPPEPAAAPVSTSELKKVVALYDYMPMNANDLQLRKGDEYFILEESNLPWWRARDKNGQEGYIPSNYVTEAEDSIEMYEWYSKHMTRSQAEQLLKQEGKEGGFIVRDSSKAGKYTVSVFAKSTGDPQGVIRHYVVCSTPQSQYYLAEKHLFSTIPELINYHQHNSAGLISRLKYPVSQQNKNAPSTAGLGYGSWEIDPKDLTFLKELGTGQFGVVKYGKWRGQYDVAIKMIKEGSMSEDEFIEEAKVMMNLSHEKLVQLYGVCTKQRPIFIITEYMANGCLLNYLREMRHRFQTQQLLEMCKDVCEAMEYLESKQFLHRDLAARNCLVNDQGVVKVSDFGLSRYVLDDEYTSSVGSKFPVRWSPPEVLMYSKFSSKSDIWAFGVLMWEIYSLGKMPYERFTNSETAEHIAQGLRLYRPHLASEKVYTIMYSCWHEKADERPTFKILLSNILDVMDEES

`C=CC(=O)N1CCC[C@H]1c1nc(-c2ccc(Oc3cccc(F)c3)cc2)c2cnccn12` [Example 11, (S)-1-(2-(1-(4-(3-fluorophenoxy)phenyl)imidazo[1,5-a]pyrazin-3-yl)pyrrolidin-1-yl)prop-2-en-1-one] and `C=CC(=O)N1CCC[C@H]1c1nc(-c2ccc(Oc3cccc(C)c3)cc2)c2cnccn12` [Example 10, (S)-1-(2-(1-(4-(m-tolyloxy)phenyl)imidazo[1,5-a]pyrazin-3-yl)pyrrolidin-1-yl)prop-2-en-1-one] fall in the same range of IC50: 0.01 to 0.1 µM for the first, 0.01 to 0.1 µM for the second.

`CC#CC(=O)N1CCCC[C@H]1c1nc(-c2ccc(OCc3cccc(F)c3)cc2)c2cnccn12` [Example 153, (S)-1-(2-(1-(4-((3-fluorobenzyl)oxy)phenyl)imidazo[1,5-a]pyrazin-3-yl)piperidin-1-yl)but-2-yn-1-one] and `CC#CC(=O)N1CCC[C@H]1c1nc(-c2ccc(OCc3cccc(F)c3)cc2)c2cnccn12` [Example 138, (S)-1-(2-(1-(4-((3-fluorobenzyl)oxy)phenyl)imidazo[1,5-a]pyrazin-3-yl)pyrrolidin-1-yl)but-2-yn-1-one] fall in the same range of IC50: 1 to 10 µM for the first, 1 to 10 µM for the second.

First: C=CC(=O)N1CCC[C@H]1c1nc(-c2ccc(COc3cccc(OC)c3F)cc2)c2cnccn12 [Example 161, (S)-1-(2-(1-(4-((2-fluoro-3-methoxyphenoxy)methyl)phenyl)imidazo[1,5-a]pyrazin-3-yl)pyrrolidin-1-yl)prop-2-en-1-one]
Second: C=CC(=O)N1CCCC[C@H]1c1nc(-c2ccc(COc3cccc(F)c3F)cc2)c2cnccn12 [Example 158, (S)-1-(2-(1-(4-((2,3-difluorophenoxy)methyl)phenyl)imidazo[1,5-a]pyrazin-3-yl)piperidin-1-yl)prop-2-en-1-one]
The IC50 of the first is lower: 0.01 to 0.1 µM for the first, 0.1 to 1 µM for the second. The first is the more potent here.

First: CC#CC(=O)N1CC[C@@H](c2nc(-c3ccc(Oc4cccc(OC)c4F)cc3)c3cncc(OC(C)C)n23)C1 [Example 115, (R)-1-(3-(1-(4-(2-fluoro-3-methoxyphenoxy)phenyl)-5-isopropoxyimidazo[1,5-a]pyrazin-3-yl)pyrrolidin-1-yl)but-2-yn-1-one]
Second: CC#CC(=O)N1CC[C@@H](c2nc(-c3ccc(Oc4cccc(OC)c4F)cc3)c3cncc(OCCN(C)C)n23)C1 [Example 90, (R)-1-(3-(5-(2-(dimethylamino)ethoxy)-1-(4-(2-fluoro-3-methoxyphenoxy)phenyl)imidazo[1,5-a]pyrazin-3-yl)pyrrolidin-1-yl)but-2-yn-1-one]
The IC50 of the first is higher: 0.1 to 1 µM for the first, 0.01 to 0.1 µM for the second.

First: COc1cccc(Oc2ccc(-c3nc([C@@H]4CCCN(C(=O)C(N)=O)C4)n4ccncc34)cc2)c1F [Example 3, (R)-2-(3-(1-(4-(2-fluoro-3-methoxyphenoxy)phenyl)imidazo[1,5-a]pyrazin-3-yl)piperidin-1-yl)-2-oxoacetamide]
Second: CC#CC(=O)N1CCC[C@H]1c1nc(-c2ccc(Oc3cccc(OC)c3F)cc2)c2cnccn12 [Example 34, (S)-1-(2-(1-(4-(2-fluoro-3-methoxyphenoxy)phenyl)imidazo[1,5-a]pyrazin-3-yl)pyrrolidin-1-yl)but-2-yn-1-one]
The IC50 of the first is higher: 1 to 10 µM for the first, 0.01 to 0.1 µM for the second. The second is the more potent here.

First: CC#CC(=O)N1CC[C@@H](c2nc(-c3ccc(C(=O)Nc4ccccn4)cc3)c3c(C)ncc(C)n23)C1 [Example 183, (R)-4-(3-(1-(but-2-ynoyl)pyrrolidin-3-yl)-5,8-dimethylimidazo[1,5-a]pyrazin-1-yl)-N-(pyridin-2-yl)benzamide]
Second: CC#CC(=O)N1CCC[C@@H](c2nc(-c3ccc(C(=O)Nc4ccccn4)cc3)c3cnccn23)C1 [Example 167, (R)-4-(3-(1-(but-2-ynoyl)piperidin-3-yl)imidazo [1,5-a]pyrazin-1-yl)-N-(pyridin-2-yl)benzamide]
The IC50 of the first is lower: 0.1 to 1 µM for the first, 1 to 10 µM for the second.

`CC#CC(=O)N1CCCC[C@H]1c1nc(-c2ccc(COc3ccc(F)c(F)c3)cc2)c2cnccn12` [Example 149, (S)-1-(2-(1-(4-((3,4-difluorophenoxy)methyl)phenyl)imidazo[1,5-a]pyrazin-3-yl)piperidin-1-yl)but-2-yn-1-one] and `CC#CC(=O)N1CCCC[C@H]1c1nc(-c2ccc(COc3cccc(F)c3F)cc2)c2cnccn12` [Example 159, (S)-1-(2-(1-(4-((2,3-difluorophenoxy)methyl)phenyl)imidazo[1,5-a]pyrazin-3-yl)piperidin-1-yl)but-2-yn-1-one] fall in the same range of IC50: 1 to 10 µM for the first, 1 to 10 µM for the second.

Compared with `CC#CC(=O)N1CC[C@@H](c2nc(-c3ccc(Oc4cccc(OC)c4F)cc3)c3c(CCC)nccn23)C1` [Example 110, (R)-1-(3-(1-(4-(2-fluoro-3-methoxyphenoxy)phenyl)-8-propylimidazo[1,5-a]pyrazin-3-yl)pyrrolidin-1-yl)but-2-yn-1-one], `CC#CC(=O)N1CC[C@@H](c2nc(-c3ccc(Oc4cccc(OC)c4F)cc3)c3c(CO)nccn23)C1` [Example 119, (R)-1-(3-(1-(4-(2-fluoro-3-methoxyphenoxy)phenyl)-8-(hydroxymethyl)imidazo[1,5-a]pyrazin-3-yl)pyrrolidin-1-yl)but-2-yn-1-one] is lower in IC50: 1 to 10 µM for the first, 0.01 to 0.1 µM for the second. The second is the more potent here.

`CC#CC(=O)N1CCC[C@H]1c1nc(-c2ccc(OCc3cccc(Cl)c3)cc2)c2cnccn12` [Example 142, (S)-1-(2-(1-(4-((3-chlorobenzyl)oxy)phenyl)imidazo[1,5-a]pyrazin-3-yl)pyrrolidin-1-yl)but-2-yn-1-one] and `CC#CC(=O)N1CCC[C@H]1c1nc(-c2ccc(OCc3c(F)cccc3F)cc2)c2cnccn12` [Example 137, (S)-1-(2-(1-(4-((2,6-difluorobenzyl)oxy)phenyl)imidazo[1,5-a]pyrazin-3-yl)pyrrolidin-1-yl)bul-2-yn-1-one] fall in the same range of IC50: 1 to 10 µM for the first, 1 to 10 µM for the second.

`CC#CC(=O)N1CCCC[C@H]1c1nc(-c2ccc(Oc3cccc(OC)c3F)cc2)c2c(C(=O)OC)nccn12` [Example 67, methyl (S)-3-(1-(but-2-ynoyl)piperidin-2-yl)-1-(4-(2-fluoro-3-methoxyphenoxy)phenyl)imidazo[1,5-a]pyrazine-8-carboxylate] and `C=CC(=O)N1CCCC[C@H]1c1nc(-c2ccc(Oc3cccc(OC)c3F)cc2)c2c(C(=O)OC)nccn12` [Example 66, methyl (S)-3-(1-acryloylpiperidin-2-yl)-1-(4-(2-fluoro-3-methoxyphenoxy)phenyl)imidazo[1,5-a]pyrazine-8-carboxylate] fall in the same range of IC50: 1 to 10 µM for the first, 1 to 10 µM for the second.

First: CC#CC(=O)N1CCC[C@H]1c1nc(-c2ccc(Oc3cccc(F)c3)cc2)c2cnccn12 [Example 7, (S)-1-(2-(1-(4-(3-fluorophenoxy)phenyl)imidazo[1,5-a]pyrazin-3-yl)pyrrolidin-1-yl)but-2-yn-1-one]
Second: CC#CC(=O)N1CCC[C@H]1c1nc(-c2ccc(Oc3ccccc3OC)cc2)c2cnccn12 [Example 24, (S)-1-(2-(1-(4-(2-methoxyphenoxy)phenyl)imidazo[1,5-a]pyrazin-3-yl)pyrrolidin-1-yl)but-2-yn-1-one]
The IC50 of the first is lower: 0.01 to 0.1 µM for the first, 1 to 10 µM for the second.

First: C=CC(=O)N1CCCC[C@H]1c1nc(-c2cccc(OCc3cccc(C(F)(F)F)c3)c2)c2c(C)nccn12 [Example 162, (S)-1-(2-(8-methyl-1-(3-((3-(trifluoromethyl)benzyl)oxy)phenyl)imidazo[1,5-a]pyrazin-3-yl)piperidin-1-yl)prop-2-en-1-one]
Second: CC#CC(=O)N1CCCC[C@H]1c1nc(-c2ccc(COc3ccc(F)c(F)c3)cc2)c2c(C)nccn12 [Example 151, (S)-1-(2-(1-(4-((3,4-difluorophenoxy)methyl)phenyl)-8-methylimidazo[1,5-a]pyrazin-3-yl)piperidin-1-yl)but-2-yn-1-one]
The IC50 of the first is higher: 1 to 10 µM for the first, 0.1 to 1 µM for the second. The second is the more potent here.

`CC#CC(=O)N1CCCC[C@H]1c1nc(-c2ccc(Oc3cccc(Cl)c3F)cc2)c2c(C)nccn12` [Example 43, (S)-1-(2-(1-(4-(3-chloro-2-fluorophenoxy)phenyl)-8-methylimidazo[1,5-a]pyrazin-3-yl)piperidin-1-yl)but-2-yn-1-one] and `CC#CC(=O)N1CCCC[C@H]1c1nc(-c2ccc(Oc3cccc(C)c3)cc2)c2c(C)nccn12` [Example 41, (S)-1-(2-(8-methyl-1-(4-(m-tolyloxy)phenyl)imidazo[1,5-a]pyrazin-3-yl)piperidin-1-yl)but-2-yn-1-one] fall in the same range of IC50: 0.01 to 0.1 µM for the first, 0.01 to 0.1 µM for the second.

First: CC#CC(=O)N1CCC[C@H]1c1nc(-c2ccc(Oc3cccc(OC)c3F)cc2)c2c(CO)nccn12 [Example 123, (S)-1-(2-(1-(4-(2-fluoro-3-methoxyphenoxy)phenyl)-8-(hydroxymethyl)imidazo[1,5-a]pyrazin-3-yl)pyrrolidin-1-yl)but-2-yn-1-one]
Second: CC#CC(=O)N1CCC[C@H]1c1nc(-c2ccc(COc3cccc(F)c3F)cc2)c2cnccn12 [Example 130, (S)-1-(2-(1-(4-((2,3-difluorophenoxy)methyl)phenyl)imidazo[1,5-a]pyrazin-3-yl)pyrrolidin-1-yl)but-2-yn-1-one]
The IC50 of the first is lower: 0.1 to 1 µM for the first, 1 to 10 µM for the second. The first is the more potent here.

Compared with `C=CC(=O)N1CCC[C@H]1c1nc(-c2ccc(C(=O)Nc3cccc(OC)c3F)cc2)c2cnccn12` [Example 165, (S)-4-(3-(1-acryloylpyrrolidin-2-yl)imidazo[1,5-a]pyrazin-1-yl)-N-(2-fluoro-3-methoxyphenyl)benzamide], `C=CC(=O)N1CCC[C@H]1c1nc(-c2ccc(COc3ccccc3)cc2)c2cnccn12` [Example 143, (S)-1-(2-(1-(4-(phenoxymethyl)phenyl)imidazo[1,5-a]pyrazin-3-yl)pyrrolidin-1-yl)prop-2-en-1-one] is lower in IC50: 0.1 to 1 µM for the first, 0.01 to 0.1 µM for the second. The second is the more potent here.

`C=CC(=O)N1CCC[C@H]1c1nc(-c2ccc(Oc3ccccc3)nc2)c2cnccn12` [Example 4, (S)-1-(2-(1-(6-Phenoxypyridin-3-yl)imidazo[1,5-a]pyrazin-3-yl)pyrrolidin-1-yl)prop-2-en-1-one] and `C=CC(=O)N1CCCC[C@H]1c1nc(-c2ccc(C(=O)Nc3ccccn3)cc2)c2cncc(C)n12` [Example 186, (S)-4-(3-(1-acryloylpiperidin-2-yl)-5-methylimidazo [1,5-a]pyrazin-1-yl)-N-(pyridin-2-yl)benzamide] fall in the same range of IC50: 0.1 to 1 µM for the first, 0.1 to 1 µM for the second.

With `CC#CC(=O)N1CC[C@@H](c2nc(-c3ccc(C(=O)Nc4cc(C(F)(F)F)ccn4)cc3F)c3cnccn23)C1` [Example 212, (R)-4-(3-(1-(but-2-ynoyl)pyrrolidin-3-yl)imidazo [1,5-a]pyrazin-1-yl)-3-fluoro-N-(4-(trifluoromethyl)pyridin-2-yl)benzamide] the IC50 was 0.01 to 0.1 µM.
